Test results from ChEMBL document CHEMBL4828751, “Discovery of novel tubulin/HDAC dual-targeting inhibitors with strong antitumor and antiangiogenic potency” (Eur J Med Chem, 2021).

test system: U-937; experiment: Antiproliferative activity against human U-937 cells assessed as cell growth inhibition after 72 hrs by CCK8 assay; format: functional, cell-based; conditions: U-937, 72 h

Row | SMILES | IC50 [µM]
1 | COc1ccc(/C=C\c2cc(OC)c(OC)c(OC)c2)cc1OCc1ccc(C(=O)Nc2ccccc2N)cc1 | 1.79
2 | COc1ccc(C(=O)c2cc(OC)c(OC)c(OC)c2)cc1/C=C/C(=O)Nc1ccccc1N | 2.25
3 | COc1ccc(/C=C\c2cc(OC)c(OC)c(OC)c2)cc1OCCCC(=O)Nc1ccccc1N | 5.78
4 | COc1ccc(C(=O)c2cc(OC)c(OC)c(OC)c2)cc1Oc1ccc(C(=O)Nc2ccccc2N)cc1 | > 5
5 | COc1ccc(C(=O)c2cc(OC)c(OC)c(OC)c2)cc1Oc1ccc(C(=O)Nc2ccccc2N)cn1 | > 5

Now from value to compound:

Row | IC50 [µM] | SMILES
6 | 1.13 | COc1ccc(C(=O)c2cc(OC)c(OC)c(OC)c2)cc1OCC(=O)NO
7 | > 5 | COc1ccc(C(=O)c2cc(OC)c(OC)c(OC)c2)cc1OCc1ccc(C(=O)NO)cc1
8 | > 5 | COc1ccc(C(=O)c2cc(OC)c(OC)c(OC)c2)cc1Oc1ccc(C(=O)NO)cn1

test system: A549; experiment: Antiproliferative activity against human A549 cells assessed as cell growth inhibition after 72 hrs by SRB assay; format: functional, cell-based; conditions: A549, 72 h

Row | SMILES | IC50 [µM]
9 | COc1ccc(/C=C\c2cc(OC)c(OC)c(OC)c2)cc1OCc1ccc(C(=O)Nc2ccccc2N)cc1 | 2.21
10 | COc1ccc(C(=O)c2cc(OC)c(OC)c(OC)c2)cc1/C=C/C(=O)Nc1ccccc1N | 3.21
11 | COc1ccc(/C=C\c2cc(OC)c(OC)c(OC)c2)cc1OCCCC(=O)Nc1ccccc1N | 3.24
12 | COc1ccc(C(=O)c2cc(OC)c(OC)c(OC)c2)cc1Oc1ccc(C(=O)Nc2ccccc2N)cc1 | > 5
13 | COc1ccc(C(=O)c2cc(OC)c(OC)c(OC)c2)cc1Oc1ccc(C(=O)Nc2ccccc2N)cn1 | > 5

Next, values leading:

Row | IC50 [µM] | SMILES
14 | > 5 | COc1ccc(C(=O)c2cc(OC)c(OC)c(OC)c2)cc1OCC(=O)NO
15 | > 5 | COc1ccc(C(=O)c2cc(OC)c(OC)c(OC)c2)cc1OCc1ccc(C(=O)NO)cc1
16 | > 5 | COc1ccc(C(=O)c2cc(OC)c(OC)c(OC)c2)cc1Oc1ccc(C(=O)NO)cn1

test system: MGC-803; experiment: Antiproliferative activity against human MGC-803 cells assessed as cell growth inhibition after 72 hrs by SRB assay; format: functional, cell-based; conditions: MGC-803, 72 h

Row | SMILES | IC50 [µM]
17 | COc1ccc(/C=C\c2cc(OC)c(OC)c(OC)c2)cc1OCc1ccc(C(=O)Nc2ccccc2N)cc1 | 0.604
18 | COc1ccc(C(=O)c2cc(OC)c(OC)c(OC)c2)cc1/C=C/C(=O)Nc1ccccc1N | 1.1
19 | COc1ccc(/C=C\c2cc(OC)c(OC)c(OC)c2)cc1OCCCC(=O)Nc1ccccc1N | > 5
20 | COc1ccc(C(=O)c2cc(OC)c(OC)c(OC)c2)cc1Oc1ccc(C(=O)Nc2ccccc2N)cc1 | > 5
21 | COc1ccc(C(=O)c2cc(OC)c(OC)c(OC)c2)cc1Oc1ccc(C(=O)Nc2ccccc2N)cn1 | > 5

Other lines, results leading:

Row | IC50 [µM] | SMILES
22 | 0.105 | COc1ccc(C(=O)c2cc(OC)c(OC)c(OC)c2)cc1OCC(=O)NO
23 | > 5 | COc1ccc(C(=O)c2cc(OC)c(OC)c(OC)c2)cc1OCc1ccc(C(=O)NO)cc1
24 | > 5 | COc1ccc(C(=O)c2cc(OC)c(OC)c(OC)c2)cc1Oc1ccc(C(=O)NO)cn1

test system: HepG2; experiment: Antiproliferative activity against human HepG2 cells assessed as cell growth inhibition after 72 hrs by SRB assay; format: functional, cell-based; conditions: HepG2, 72 h

Row | SMILES | IC50 [µM]
25 | COc1ccc(/C=C\c2cc(OC)c(OC)c(OC)c2)cc1OCc1ccc(C(=O)Nc2ccccc2N)cc1 | 3.41
26 | COc1ccc(C(=O)c2cc(OC)c(OC)c(OC)c2)cc1/C=C/C(=O)Nc1ccccc1N | 1.17
27 | COc1ccc(/C=C\c2cc(OC)c(OC)c(OC)c2)cc1OCCCC(=O)Nc1ccccc1N | > 5
28 | COc1ccc(C(=O)c2cc(OC)c(OC)c(OC)c2)cc1Oc1ccc(C(=O)Nc2ccccc2N)cc1 | > 5
29 | COc1ccc(C(=O)c2cc(OC)c(OC)c(OC)c2)cc1Oc1ccc(C(=O)Nc2ccccc2N)cn1 | > 5

Next, values leading:

Row | IC50 [µM] | SMILES
30 | 0.521 | COc1ccc(C(=O)c2cc(OC)c(OC)c(OC)c2)cc1OCC(=O)NO
31 | > 5 | COc1ccc(C(=O)c2cc(OC)c(OC)c(OC)c2)cc1OCc1ccc(C(=O)NO)cc1
32 | > 5 | COc1ccc(C(=O)c2cc(OC)c(OC)c(OC)c2)cc1Oc1ccc(C(=O)NO)cn1

test system: MCF7; experiment: Antiproliferative activity against human MCF7 cells assessed as cell growth inhibition after 72 hrs by SRB assay; format: functional, cell-based; conditions: MCF7, 72 h

Row | SMILES | IC50 [µM]
33 | COc1ccc(/C=C\c2cc(OC)c(OC)c(OC)c2)cc1OCc1ccc(C(=O)Nc2ccccc2N)cc1 | 1.47
34 | COc1ccc(C(=O)c2cc(OC)c(OC)c(OC)c2)cc1/C=C/C(=O)Nc1ccccc1N | 0.828
35 | COc1ccc(/C=C\c2cc(OC)c(OC)c(OC)c2)cc1OCCCC(=O)Nc1ccccc1N | 4.28
36 | COc1ccc(C(=O)c2cc(OC)c(OC)c(OC)c2)cc1Oc1ccc(C(=O)Nc2ccccc2N)cc1 | > 5
37 | COc1ccc(C(=O)c2cc(OC)c(OC)c(OC)c2)cc1Oc1ccc(C(=O)Nc2ccccc2N)cn1 | > 5

Next, values leading:

Row | IC50 [µM] | SMILES
38 | 0.189 | COc1ccc(C(=O)c2cc(OC)c(OC)c(OC)c2)cc1OCC(=O)NO
39 | > 5 | COc1ccc(C(=O)c2cc(OC)c(OC)c(OC)c2)cc1OCc1ccc(C(=O)NO)cc1
40 | > 5 | COc1ccc(C(=O)c2cc(OC)c(OC)c(OC)c2)cc1Oc1ccc(C(=O)NO)cn1

test system: HeLa; experiment: Antiproliferative activity against human HeLa cells assessed as cell growth inhibition after 72 hrs by SRB assay; format: functional, cell-based; conditions: not given

Row | SMILES | IC50 [µM]
41 | COc1ccc(/C=C\c2cc(OC)c(OC)c(OC)c2)cc1OCc1ccc(C(=O)Nc2ccccc2N)cc1 | 2.21
42 | COc1ccc(C(=O)c2cc(OC)c(OC)c(OC)c2)cc1/C=C/C(=O)Nc1ccccc1N | 1.18
43 | COc1ccc(/C=C\c2cc(OC)c(OC)c(OC)c2)cc1OCCCC(=O)Nc1ccccc1N | 0.74
44 | COc1ccc(C(=O)c2cc(OC)c(OC)c(OC)c2)cc1Oc1ccc(C(=O)Nc2ccccc2N)cc1 | > 5
45 | COc1ccc(C(=O)c2cc(OC)c(OC)c(OC)c2)cc1Oc1ccc(C(=O)Nc2ccccc2N)cn1 | > 5

Further lines, results first:

Row | IC50 [µM] | SMILES
46 | 0.753 | COc1ccc(C(=O)c2cc(OC)c(OC)c(OC)c2)cc1OCC(=O)NO
47 | > 5 | COc1ccc(C(=O)c2cc(OC)c(OC)c(OC)c2)cc1OCc1ccc(C(=O)NO)cc1
48 | > 5 | COc1ccc(C(=O)c2cc(OC)c(OC)c(OC)c2)cc1Oc1ccc(C(=O)NO)cn1

target: Histone deacetylase; experiment: Inhibition of HDAC (unknown origin); format: protein assay, Homo sapiens; conditions: not given

Row | IC50 [µM] | SMILES
49 | 0.25 | COc1ccc(C(=O)c2cc(OC)c(OC)c(OC)c2)cc1OCC(=O)NO

target: Tubulin; experiment: Inhibition of tubulin polymerization (unknown origin) measured after 1 min by fluorescence assay; format: protein-complex assay, Homo sapiens; conditions: read-out: IC50

Row | IC50 [µM] | SMILES
50 | 19.6 | COc1ccc(C(=O)c2cc(OC)c(OC)c(OC)c2)cc1OCC(=O)NO
